Laboratory results from patent publication US20120022107A1, “2-(PIPERIDIN-1-YL)-4-AZOLYL-THIAZOLE-5-CARBOXYLIC ACID DERIVATIVES AGAINST BACTERIAL INFECTIONS” (ASTRAZENECA AB, priority 2008, published 2012).
≈ marks a conversion by molar mass, not a printed value.

Columns and labels:
M. tuberculosis = assay: MIC testing: Microplate Alamar Blue Assay; assay type: cell-based, Mycobacterium tuberculosis; details: lowest concentration preventing color change from blue to pink; for MIC: Mycobacterium tuberculosis, read-out: Mtu MIC
Spn = Spn MIC; assay type: cell-based, Streptococcus pneumoniae; details: for MIC: Streptococcus pneumoniae, read-out: Spn_MIC
Hinf = Hinf MIC; assay type: cell-based, Haemophilus influenzae; details: for MIC: Haemophilus influenzae, read-out: Hinf_MIC
Sau = Sau MIC; assay type: cell-based, Staphylococcus aureus; details: for MIC: Staphylococcus aureus, read-out: Sau_MIC
Msmeg = Msmeg (Mycolicibacterium smegmatis, UniProt A0QNE0); assay: Msmeg IC50; assay type: biochemical
Chain of Msmeg (A0QNE0 whole entry): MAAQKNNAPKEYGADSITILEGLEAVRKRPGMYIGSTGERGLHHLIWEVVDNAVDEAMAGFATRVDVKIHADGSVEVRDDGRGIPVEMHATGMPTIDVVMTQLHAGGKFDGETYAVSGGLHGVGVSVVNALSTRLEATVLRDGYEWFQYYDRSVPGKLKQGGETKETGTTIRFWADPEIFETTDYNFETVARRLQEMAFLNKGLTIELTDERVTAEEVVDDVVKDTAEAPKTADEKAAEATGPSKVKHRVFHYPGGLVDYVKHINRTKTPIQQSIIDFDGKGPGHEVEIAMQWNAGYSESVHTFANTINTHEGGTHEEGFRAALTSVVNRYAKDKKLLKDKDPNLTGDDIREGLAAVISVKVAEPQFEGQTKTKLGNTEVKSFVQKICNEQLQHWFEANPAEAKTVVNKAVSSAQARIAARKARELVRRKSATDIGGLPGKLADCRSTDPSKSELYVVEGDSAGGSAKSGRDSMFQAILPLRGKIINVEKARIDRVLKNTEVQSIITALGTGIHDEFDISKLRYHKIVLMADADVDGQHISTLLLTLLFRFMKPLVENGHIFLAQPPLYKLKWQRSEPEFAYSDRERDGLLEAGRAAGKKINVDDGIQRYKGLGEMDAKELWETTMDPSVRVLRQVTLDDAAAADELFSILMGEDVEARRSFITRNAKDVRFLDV

Compound | MIC (M. tuberculosis) [µg/mL] | MIC (Spn) [µg/mL] | MIC (Hinf) [µg/mL] | MIC (Sau) [µg/mL] | IC50 (Msmeg) [nM] | Mtu MIC (M. tuberculosis) [µg/mL] | Spn_MIC (Spn) [µg/mL] | Hinf_MIC (Hinf) [µg/mL] | Sau_MIC (Sau) [µg/mL]
CO[C@H]1CN(c2nc(-c3ncnn3C)c(C(=O)O)s2)CC[C@H]1NC(=O)c1[nH]c(C)c(Br)c1C#N [Example 9, 2-{(3S,4R)-4-[(4-Bromo-3-cyano-5-methyl-1H-pyrrole-2-carbonyl)-amino]-3-methoxy-piperidin-1-yl}-4-(2-methyl-2H-[1,2,4]triazol-3-yl)-thiazole-5-carboxylic acid] | 0.015 (≈ 0.0273 µM) | 0.125 (≈ 0.228 µM) | 0.25 (≈ 0.455 µM) | 0.25 (≈ 0.455 µM) | 10 | – | – | – | –
COCCn1ccnc1-c1nc(N2CC[C@@H](NC(=O)c3[nH]c(C)c(Cl)c3Br)[C@@H](OC)C2)sc1C(=O)O [Example 7, 2-((3S,4R)-4-{[(3-Bromo-4-chloro-5-methyl-1H-pyrrol-2-yl)carbonyl]amino}-3-methoxypiperidin-1-yl)-4-[1-(2-methoxyethyl)-1H-imidazol-2-yl]-1,3-thiazole-5-carboxylic acid] | 1 (≈ 1.66 µM) | 0.125 (≈ 0.208 µM) | 0.25 (≈ 0.415 µM) | 0.125 (≈ 0.208 µM) | 4.6 | – | – | – | –
Cc1[nH]c(C(=O)N[C@@H]2CCN(c3nc(-c4ncnn4C)c(C(=O)O)s3)C[C@@H]2OCC2CC2)c(Br)c1Cl [Example 12, 2-((3S,4R)-4-(3-bromo-4-chloro-5-methyl-1H-pyrrole-2-carboxamido)-3-(cyclopropylmethoxy)piperidin-1-yl)-4-(1-methyl-1H-1,2,4-triazol-5-yl) thiazole-5-carboxylic acid] | 0.015 (≈ 0.025 µM) | 0.125 (≈ 0.209 µM) | 0.125 (≈ 0.209 µM) | 0.125 (≈ 0.209 µM) | 4 | – | – | – | –
CCn1ncnc1-c1nc(N2CC[C@@H](NC(=O)c3[nH]c(Cl)c(C)c3Cl)[C@@H](OC)C2)sc1C(=O)O [Example 15, 2-{(3S,4R)-4-[(3,5-Dichloro-4-methyl-1H-pyrrole-2-carbonyl)-amino]-3-methoxy-piperidin-1-yl}-4-(2-ethyl-2H-[1,2,4]triazol-3-yl)-thiazole-5-carboxylic acid] | 0.5 (≈ 0.946 µM) | 0.25 (≈ 0.473 µM) | 1 (≈ 1.89 µM) | 0.25 (≈ 0.473 µM) | 45 | – | – | – | –
COCCn1ncnc1-c1nc(N2CC[C@@H](NC(=O)c3[nH]c(C)c(Cl)c3Br)[C@@H](OC)C2)sc1C(=O)O [Example 19, 2-((3S,4R)-4-(3-bromo-4-chloro-5-methyl-1H-pyrrole-2-carboxamido)-3-methoxypiperidin-1-yl)-4-(1-(2-methoxyethyl)-1H-1,2,4-triazol-5-yl) thiazole-5-carboxylic acid] | 0.03 (≈ 0.0498 µM) | 0.125 (≈ 0.207 µM) | 0.25 (≈ 0.415 µM) | 0.125 (≈ 0.207 µM) | < 2.5 | – | – | – | –
CO[C@H]1CN(c2nc(-c3ncnn3CC3CC3)c(C(=O)O)s2)CC[C@H]1NC(=O)c1[nH]c(C)c(Cl)c1Br [Example 16, 2-((3S,4R)-4-(3-bromo-4-chloro-5-methyl-1H-pyrrole-2-carboxamido)-3-methoxypiperidin-1-yl)-4-(1-(cyclopropylmethyl)-1H-1,2,4-triazole-5-yl) thiazole-5-carboxylic acid] | 0.03 (≈ 0.0501 µM) | 0.25 (≈ 0.417 µM) | 0.25 (≈ 0.417 µM) | 8 (≈ 13.4 µM) | < 2.5 | – | – | – | –
CO[C@H]1CN(c2nc(-c3ncnn3C)c(C(=O)O)s2)CC[C@H]1NC(=O)c1[nH]c(C)c(Cl)c1Br [Example 1, 2-((3S,4R)-4-{[3-Bromo-4-chloro-5-methyl-1H-pyrrole-2-carbonyl]amino}-3-methoxypiperidin-1-yl)-4-(1-methyl-1H-1,2,4-triazol-5-yl)-1,3-thiazole-5-carboxylic acid] | 0.008 (≈ 0.0143 µM) | 0.116 (≈ 0.208 µM) | 8 (≈ 14.3 µM) | 0.116 (≈ 0.208 µM) | 2.6 | – | – | – | –
CO[C@H]1CN(c2nc(-c3ncnn3C)c(C(=O)O)s2)CC[C@H]1NC(=O)c1[nH]c(C)c(Br)c1Cl [Example 2, 2-((3S,4R)-4-{[4-Bromo-3-chloro-5-methyl-1H-pyrrole-2-carbonyl]amino}-3-methoxypiperidin-1-yl)-4-(1-methyl-1H-1,2,4-triazol-5-yl)-1,3-thiazole-5-carboxylic acid] | < 0.03 | 0.1 (≈ 0.179 µM) | 2.6 (≈ 4.65 µM) | 0.1 (≈ 0.179 µM) | < 4 | – | – | – | –
2-((3S,4R)-4-(3-bromo-4-chloro-5-methyl-1H-pyrrole-2- carboxamido)-3-fluoropiperidin-1-yl)-4-(1- (cyclopropylmethyl)-1H-1,2,4-triazol-5-yl) thiazole-5- carboxylic acid [Example 17] | – | – | – | – | 4 | 0.06 | 0.125 | 0.125 | 0.125
CO[C@H]1CN(c2nc(-c3ncnn3C)c(C(=O)O)s2)CC[C@H]1NC(=O)c1[nH]c(Cl)c(C)c1Cl [Example 4, 2-((3S,4R)-4-{[(3,5-Dichloro-4-methyl-1H-pyrrol-2-yl)carbonyl]amino}-3-methoxypiperidin-1-yl)-4-(1-methyl-1H-1,2,4-triazol-5-yl)-1,3-thiazole-5-carboxylic acid] | 0.125 (≈ 0.243 µM) | 0.1 (≈ 0.194 µM) | 4 (≈ 7.78 µM) | 1.26 (≈ 2.45 µM) | 30 | – | – | – | –
Cc1[nH]c(C(=O)N[C@@H]2CCN(c3nc(-c4ncnn4C)c(C(=O)O)s3)C[C@@H]2F)c(Cl)c1Br [Example 6, 2-((3S,4R)-4-{[(4-Bromo-3-chloro-5-methyl-1H-pyrrol-2-yl)carbonyl]amino}-3-fluoropiperidin-1-yl)-4-(1-methyl-1H-1,2,4-triazol-5-yl)-1,3-thiazole-5-carboxylic acid] | 1 (≈ 1.83 µM) | 0.5 (≈ 0.914 µM) | 0.25 (≈ 0.457 µM) | 0.125 (≈ 0.229 µM) | 5 | – | – | – | –
COCCn1ncnc1-c1nc(N2CC[C@@H](NC(=O)c3[nH]c(C)c(Cl)c3Br)[C@@H](F)C2)sc1C(=O)O [Example 20, 2-((3S,4R)-4-(3-bromo-4-chloro-5-methyl-1H-pyrrole-2-carboxamido)-3-fluoropiperidin-1-yl)-4-(1-(2-methoxyethyl)-1H-1,2,4-triazol-5-yl) thiazole-5-carboxylic acid] | 0.125 (≈ 0.212 µM) | 0.125 (≈ 0.212 µM) | 0.125 (≈ 0.212 µM) | 0.125 (≈ 0.212 µM) | 4 | – | – | – | –
COCCn1ncnc1-c1nc(N2CC[C@@H](NC(=O)c3[nH]c(C)c(Br)c3Cl)[C@@H](OC)C2)sc1C(=O)O [Example 21, 2-((3S,4R)-4-(4-bromo-3-chloro-5-methyl-1H-pyrrole-2-carboxamido)-3-methoxypiperidin-1-yl)-4-(1-(2-methoxyethyl)-1H-1,2,4-triazol-5-yl) thiazole-5-carboxylic acid] | 0.06 (≈ 0.0995 µM) | 0.125 (≈ 0.207 µM) | – | 0.125 (≈ 0.207 µM) | < 2.5 | – | – | – | –
CCO[C@H]1CN(c2nc(-c3ncnn3C)c(C(=O)O)s2)CC[C@H]1NC(=O)c1[nH]c(C)c(Br)c1Cl [Example 11, 2-((3S,4R)-4-(4-bromo-3-chloro-5-methyl-1H-pyrrole-2-carboxamido)-3-ethoxypiperidin-1-yl)-4-(1-methyl-1H-1,2,4-triazol-5-yl) thiazole-5-carboxylic acid] | 0.06 (≈ 0.105 µM) | 0.125 (≈ 0.218 µM) | – | 0.125 (≈ 0.218 µM) | < 2.5 | – | – | – | –
COCCn1ncnc1-c1nc(N2CC[C@@H](NC(=O)c3[nH]c(Cl)c(C)c3Cl)[C@@H](OC)C2)sc1C(=O)O [Example 22, 2-((3S,4R)-4-(3,5-dichloro-4-methyl-1H-pyrrole-2-carboxamido)-3-methoxypiperidin-1-yl)-4-(1-(2-methoxyethyl)-1H-1,2,4-triazol-5-yl) thiazole-5-carboxylic acid] | 0.5 (≈ 0.895 µM) | 0.5 (≈ 0.895 µM) | – | 0.25 (≈ 0.448 µM) | 47 | – | – | – | –
